Entries after “also recorded” stand apart in the source; their conditions may differ.
Columns and labels:
[1] = test system: A2780 cells; experiment: Apoptosis, Annexin V/7-AAD staining, flow cytometer; type: cell-based, human; conditions: TTFields applied with drug
Experimental: Apoptosis: Treated cells were double-stained with FITC-conjugated annexin V (AnnV) and 7-aminoactinomycin D (7AAD), and data acquisition was performed with a flow cytometer.
Apoptosis was also examined. Treated cells were double-stained with FITC-conjugated annexin V (AnnV) and 7-aminoactinomycin D (7AAD), and data acquisition was performed with a flow cytometer.
Treated cells were stained with FITC-conjugated Annexin V (AnnV) and 7-Aminoactinomycin D (7-AAD) using a commercial kit (BioLegend, San Diego, CA, USA), according to the manufacturer's instruction. Data acquisition and analysis were done on the Cytek Northern Lights flow cytometer

[2] = test system: orthotopic ID8-fLuc (HRP) ovarian cancer tumors; experiment: Tumor load by bioluminescent imaging in ovarian cancer bearing mice; type: in vivo
Experimental: Murine experiments were approved by the KU Leuven ethical committee (P082/2021). NIH guidelines for the Care and Use of Laboratory Animals were followed along with the 2010/62/EU directive and the ARRIVE (Animal Research: Reporting of In Vivo Research: Reporting of In Vivo Experiments) guidelines. Syngeneic ID8-fluc cells were harvested using 0.05% Trypsin-EDTA and inoculated (5×10^6 cells in 100 μL DPBS) intraperitoneally in female C57BL/6 mice (six- to eight-week-old, obtained from Envigo (Horst, The Netherlands)), leading to the development of a stage III-IV ovarian cancer model.
Seven days post inoculation, treatment was initiated. Mice were divided into four groups receiving either, sham-heat and vehicle (n=8), sham-heat and olaparib (n=8), TTFields and vehicle (n=7) or TTFields and olaparib (n=11). TTFields treatment (200 kHz) was administered continuously using the in vivo system (Novocure, Israel) by applying electrode arrays to the shaven abdomen of the mice as previously described. […]
Tumor load was observed through bioluminescent imaging analysis before (day 5) and after (day 35) treatment administration. […] Ten minutes post injection, photon flux was measured using the IVIS-spectrum preclinical In Vivo Imaging System (Perkin-Elmer, USA). Normalized photon flux was calculated by subtracting the photon flux before treatment from the paired photon flux after treatment per mouse.

**Q.** What does the source list for `O=C(c1cc(Cc2n[nH]c(=O)c3ccccc23)ccc1F)N1CCN(C(=O)C2CC2)CC1` [olaparib]?
**A.** effect of TTFields on the apoptotic effect / apoptotic cell fraction [1]: enhanced; also recorded: elevation; tumor volumes lower compared to controls and to olaparib only treated mice ([2]; TTFields (200 kHz) plus olaparib 50 mg/kg/day oral gavage, after 4 weeks, p=0.0183 vs controls, p=0.0066 vs olaparib only): about 80%; tumor growth relative to olaparib alone and to control, TTFields and olaparib together ([2]; TTFields plus olaparib 50 mg/kg/day): significant reduction
